Assay: Ability to form liquid crystal, water-invading method
Type: physicochemical
Conditions: polarization microscope, compared with conventional MEL, FIGS. 10 and 11
Excerpt: Evaluation of the ability to form liquid crystals can be made by a conventional and publicly known method. An example of the method for easily comparing the ability to form liquid crystals is a water invading method. In this method, MEL is applied on a slide glass and distilled water is dropped beside the applied area, and a liquid crystal phase formed at an interface by dropping of the distilled water is observed by a microscope. Thus, behavior of liquid crystal formation can be searched. With the method, it is possible to easily compare the conventional MEL with the MEL optical isomer of the present invention in terms of their abilities to form liquid crystals.
MEL produced by Pseudozyma tsukubaensis JCM 10324 strain obtained in Example 8 and conventional MEL produced by Pseudozyma antarctica KM-34 (FERMP-20730) strain were compared with each other by a water-invading method in terms of their abilities to form liquid crystal.

1-(6′-acetyl-2′,3′-di-O-alka(ke)noyl-β-D-mannnopyranosyl-)meso-erythritol
ability to form liquid crystal (lamella phase): has an ability to form lamella phase in a very wider concentration range than conventional MEL

— US7989599B2, “Activator including biosurfactant as active ingredient, mannosyl erythritol lipid, and production method thereof” (Toyo Boseki Kabushiki Kaisha, priority 2009, dated 2011)
